{"source": "patent US20100098632A1", "about": "“HYDROXYAPATITE PARTICLES” (priority 2006, published 2010)", "key": {"[1]": {"test": "In vivo biodistribution of Sm-HAP by gamma camera / microSPECT-CT imaging", "settings": "mice, intravenous, 200 μCi for Sm-HAP", "protocol": "FIG. 1 contains photographs of the distribution of Sm-HAP uptake in mice. […] The mouse was injected intravenously with Sm-153 HA nanoparticles synthesized at 50° C. Imaging was performed 2 hours post injection.\nFIG. 2 contains a photograph of the distribution of Sm-153 EDTMP determined via non-invasive imaging using a small animal gamma camera (X-SPECT).\nTo determine the in vivo biodistribution of Sm-HAP, 200 μCi of Sm-HAP were administered intravenously to mice in 150 to 200 μL. The mice were imaged non-invasively using a microSPECT/CT machine."}, "Hep3B/Fluc": {"tested_on": "Hep3B/Fluc", "test": "Mouse liver cancer model, bioluminescent tumor imaging", "assay_type": "in vivo, Nude mice", "settings": "intrahepatic Hep3B/Fluc, treatment day seven, intravenous", "protocol": "Experiments were performed to evaluate Sm-153-hydroxyapatite particles (Sm-HAP) alone or in combination with PS-341, a radiosensitizer drug, in a mouse liver cancer model. Nude mice were injected intrahepatically with Hep3B/Fluc, a human hepatocellular carcinoma cell line expressing Firefly luciferase. Tumor growth was determined using a Xenogen Bioluminescent IVIS 200 Imaging System. On day seven after tumor implantation, mice were injected intravenously via the tail vein with 200 μg HAP, 0.5 mCi free Sm-153-EDTMP, 0.5 mCi Sm-HAP alone, or 0.5 mCi Sm-HAP in combination with two intraperitoneal doses of 0.5 mg/kg PS-341, the first administered one day prior to Sm-HAP administration and the second administered one day after Sm-HAP administration. […] In contrast, tumors in mice treated with the combination therapy (Sm-HAP and two doses of PS-341) regressed, as evidenced by a decrease in the signal (FIG. 7)."}, "[2]": {"test": "Labeling of preformed hydroxyapatite particles by incubation with Sm-153-EDTMP", "assay_type": "physicochemical", "settings": "1 mg particles with 200 μCi for up to 2 hours at room temperature", "protocol": "The unlabeled, hydroxyapatite particles were incubated with Sm-153-EDTMP. Briefly, 1 mg of hydroxyapatite particles was incubated with 200 μCi of Sm-153-EDTMP for up to 2 hours at room temperature (25° C.). The resulting hydroxyapatite particles were spun down and resuspended in 10 mM Tris buffer pH 7.2. The amount of Sm-153 radioactivity in the hydroxyapatite particles was determined and found to be negligible."}, "[3]": {"test": "Clodronate loading on hydroxyapatite particles", "assay_type": "physicochemical", "settings": "for binding (loading) efficiency of clodronate to HA: 20 mg clodronate per 1 mg particles, disodium salt", "protocol": "Clodronate (dichloromethylenediphosphonic acid disodium salt; Sigma, St. Louis, Mo.) was dissolved in distilled water (200 mg/mL) and 20 mg was added to 1 mg of hydroxyapatite particles. The mixture was incubated for 30 minutes. After hydroxyapatite particle binding, free clodronate in the supernatant was complexed with copper (II) ions (Cu^2) in nitric acid solution and the concentration was assayed by ultraviolet spectrophotometry as described elsewhere (Ostovic et al., Pharm Res., 10:470-472 (1993)). The amount of clodronate bound to hydroxyapatite particles was calculated by subtracting free clodronate from input clodronate.\nThe feasibility of utilizing the HA-biphosphonate interaction for drug loading onto the particles also was tested. Twenty milligrams of clodronate, a biphosphonate, was mixed with 1 mg of hydroxyapatite particles (40 nm in size) in 10 mM Tris-Cl buffer (pH 7.2), and the mixture was incubated with continuous shaking at room temperature for 30 minutes. Clodronate could be loaded onto hydroxyapatite particles at 10% efficiency (2 mg clodronate/mg HAP; n=3). […] The clodronate that was loaded on hydroxyapatite particles remained biologically active."}}}
{"smiles": "O=P([O-])(O)CN(CCN(CP(=O)([O-])O)CP(=O)(O)O)CP(=O)([O-])O.[153Sm+3]", "note": "[Sm-153-EDTMP]", "values": [{"measurement": "in vivo biodistribution (uptake sites by imaging)", "setting": "[1]", "result": "binds to the skeleton of the mouse"}, {"measurement": "tumor course by bioluminescent signal", "setting": "Hep3B/Fluc", "result": "progressed"}, {"measurement": "amount of Sm-153 radioactivity in the hydroxyapatite particles", "setting": "[2]", "result": "negligible"}]}
{"smiles": "O=P([O-])([O-])C(Cl)(Cl)P(=O)(O)O.[Na+].[Na+]", "note": "[clodronate, dichloromethylenediphosphonic acid disodium salt]", "values": [{"measurement": "final concentration of clodronate on HA", "setting": "[3]; 40 nm HA", "result": 2, "unit": "mg clodronate/mg HA"}, {"measurement": "binding (loading) efficiency of clodronate to HA", "setting": "[3]; 40 nm HA", "result": 10, "unit": "%"}, {"measurement": "binding (loading) efficiency of clodronate to HA", "setting": "[3]; 40 nm HA, listed as clondronate", "result": "about 10%"}, {"measurement": "clodronate loaded per mg particles", "setting": "[3]; 40 nm, 10 mM Tris-Cl pH 7.2, 30 minutes, n=3", "result": 2, "unit": "mg clodronate/mg HAP"}]}
